Test results as given in publication PMC5325331, “A steroid like phytochemical Antcin M is an anti-aging reagent that eliminates hyperglycemia-accelerated premature senescence in dermal fibroblasts by direct activation of Nrf2 and SIRT-1” (Oncotarget, 2016).
Where two headings read alike, the source gives them in different places. Values belong to the compound of their own block, whether it stands above or below them.

Assays:
HNDFs [1] = assay: Cytotoxicity of antcins against HNDFs (MTT assay); assay type: cell-based, human; conditions: for IC50: MTT assay, read-out: IC50 (50% inhibitory concentration) against HNDFs; for cytotoxicity to HNDFs up to the high treatment concentration: up to 20 μM, 72 h, MTT
Protocol: Figure 2 Effects of antcins on HG-induced senescence in HNDFs A. Type of antcins subjected to screen for potential anti-aging agents for skin aging. Names and chemical structures of the antcins are shown in the left and centrer column, respectively. The cytotoxic effects of antcins against HNDFs. Briefly, HNDFs were incubated with increasing concentrations (1, 5, 10 and 20 μM) of antcins including antcin A, antcin B, antcin C, antcin H, anticn K and antcin M for 72 h and the cell viability was determined by MTT assay. The 50% inhibitory concentrations (IC50) of each compound against HNDFs are shown in right column. B. Cells were incubated with antcin A (10 μM), antcin H (10 μM) and antcin M (10 μM) in the presence of HG (30 mM) for 72 h. Cellular senescence was determined by SA-β-gal activity. […] C. HNDFs were incubated with antcin A (10 μM), antcin H (10 μM) and antcin M (10 μM) in the presence of HG (30 mM) for 72 h. Senescence-associated marker proteins such as p16^INK4A, p21^CIP1 and SMP30 were determined by western blot analysis. D. To determine the effect of antcins on cell proliferation efficacy, HNDFs 5 × 10^4 cells/well in 6-well plates were incubated with antcins in the presence of HG (30 mM) for 72 h. Number of viable cells were quantified by the tryphan blue exclusion method. Results are expressed as mean ± S.E.M of three indipendent expriments. Statistical significance was et at ^ФP < 0.05 compared to NG vs HG and *P < 0.05 compared to HG vs. samples.
(§1) Human normal dermal fibroblasts (HNDFs, CCD966SK) and human umbilical vein endothelial cells (HUVECs) were obtained from the Bioresource Collection and Research Center (BCRC), Hsinchu, Taiwan. HNDFs were grown in MEM containing 10% FBS, 2 mM L-glutamine, 100 U/mL penicillin and streptomycin at 37°C in a fully humidified atmosphere of 5% CO2. Likewise, HUVECs were grown in M-199 medium supplemented with ECGS, heparin, 10% FBS and 100 U/mL penicillin and streptomycin at 37°C in a fully humidified atmosphere of 5% CO2. High-glucose treatment was performed by treating cells with 15 or 30 mM D-glucose (HG) for 24-72 h.
Cell viability was assessed by MTT colorimetric assay. Briefly, HNDFs (2 × 10^4 cells/well) or HUVECs (5 × 10^4 cells/well) were seeded in a 24-well culture plate. After treatment with HG (15 and 30 mM) in the presence or absence of samples for 24-72 h, culture media was withdrawn and incubated with MTT (1 mg/mL) in fresh medium for 2 h. The MTT formazan crystals were dissolved in 400 μL of DMSO and the samples were measured at 570 nm […] using an ELISA microplate reader (Bio-Tek Instruments, Winooski, VT). The percentage of cell viability (%) was calculated as (A570 of treated cells/A570 of untreated cells) × 100.

[2] = tested on: p16INK4A, p21CIP1 and SMP30; assay: Western blot of senescence-associated marker proteins in HG-induced HNDFs; assay type: cell-based, human; conditions: 10 μM with HG (30 mM) for 72 h, immunoblotting
Protocol: Cells were lysed by either RIPA lysis buffer or nuclear and cytoplasmic extraction reagents (Thermo Fisher Scientific). Protein concentrations were determined by Bio-Rad protein assay reagent (Bio-Rad Laboratories, Hercules, CA). Equal amounts of protein samples (60 μg) were separated by 7-12% SDS-PAGE and the separated proteins were transferred onto polyvinylidene […] (PVDC) membrane overnight. The transferred protein membranes were blocked with 5% non-fat dried milk for 30 min, followed by incubation with specific primary antibodies overnight, and either horseradish peroxidase-conjugated goat anti-rabbit or anti-mouse antibodies for 2 h. The blots were detected using VL Chemi-Smart 3000 (Viogene Biotek, Sunnyvale, CA) with the enhanced chemiluminescence (ECL) western blotting reagent (Millipore, Billerica, MA).

HNDFs [3] = assay: SA-β-gal senescence assay in HG-induced HNDFs; assay type: cell-based, human; conditions: for SA-β-gal positive cells: 10 μM with HG (30 mM) for 72 h, HG alone 9.59-fold (Figure 2B); for HG-induced SA-β-gal activity in kinase inhibitor-treated cells: inhibitor 30 μM with HG (30 mM) for 72 h (Figure 4H)
Protocol: as §1
Senescence-associated β-galactosidase (SA-β-gal) activity was determined in formaldehyde-fixed histochemical staining kit according to the manufacturer's instructions (Cell Signaling Technology, Danvers, […]). Briefly, cells were grown in 6-well plates at a density of 5 × 10^4 cells/well, and incubated with HG or test samples for 48 h (HUVECs) or 72 h (HNDFs). After incubation, cells were stained with SA-β-gal staining solution at pH 6.0 overnight and then the development of blue staining was observed and photographed under a bright-field microscope (Motic Electric Group, Xiamen, P.R. China).

HNDFs [4] = assay: Cell proliferation, trypan blue exclusion assay in HG-induced HNDFs; assay type: cell-based, human; conditions: with HG (30 mM) for 72 h (Figure 2D)
Protocol: Cell proliferation was evaluated using trypan blue exclusion assay as described previously with minor modification. Cells were plated into 6-well plates at a density of 5 × 10^4 cells/well. After incubation overnight, cells were treated with test samples in the presence or absence of HG for 24-72 h. Cells exposed to 0.2% Trypan blue were then counted in a hemocytometer, and cells stained with Trypan blue were excluded. Percentage of viable cells was calculated based on the ratio of viable cells to total cell population in each well. The proliferation rate was calculated based on the number of viable cells in HG or sample-treated groups versus the NG-treated group.

[5] = tested on: Nrf2 transcriptional activity (ARE promoter); assay: ARE luciferase reporter assay in HNDFs; assay type: cell-based, human; conditions: for ANM-induced ARE luciferase activity after inhibitor pretreatment: inhibitor pre-incubation 2 h, then ANM 6 h in the presence of HG; for ARE luciferase activity: 6 h
Protocol: ARE promoter activity was measured using a dual-luciferase reporter assay system (Promega, Madison, WI). […] Cells were then transfected with ARE plasmid (Qiagen, Hilden, Germany) using Lipofectamine 2000 (Invitrogen) and incubated for 36 h. […] The cell lysate was prepared and incubated with luciferase agents and the relative luminescence intensity was quantified using a spectrophotometer (Hidex Oy, Turku, Finland).

HNDFs [6] = assay: Cell-cycle analysis by flow cytometry (PI) in HG-induced HNDFs; assay type: cell-based, human; conditions: NAC 100 μM with HG (30 mM) for 72 h
Protocol: HNDFs at a density of 5 × 10^5 cells in 10 cm dishes were treated with ANM or NAC in the presence or absence of HG for 72 h. Cells were collected, washed with PBS and fixed in 95% cold-ethanol, and kept at −20°C overnight. The cell pellet was then washed again with PBS and centrifuged at 1500 × g for 5 min. The pellet was re-suspended in 1 mL PI/Triton X-100 (20 μg/mL PI, 0.1% Triton X-100 and 0.2 mg/mL RNAse) and incubated on ice for 30 min. The total cellular DNA content was analyzed with a flow cytometer (Beckman Coulter FC500). Data were acquired and analyzed using CXP software (Beckman Coulter).

[7] = Cell-free DPPH free-radical scavenging assay
Protocol: Therefore, next to determine whether ANM acts directly as a free-radical scavenger, we performed a cell-free DPPH free-radical scavenging assay.
Figure 5 Antcin M activates Nrf2-dependent anti-oxidant defense in HNDFs A. To determine the free-radical scavenging effect of ANM, cell-free DPPH assay was performed. […] Results expressed as mean ± S.E.M of three indipendent expriments.

HNDFs [8] = assay: Flow cytometric detection of intracellular ROS (DCFH2-DA) in HNDFs; assay type: cell-based, human
Protocol: Intracellular ROS accumulation was determined using the dye DCFH2-DA following a procedure described earlier. Briefly, HNDFs (1 × 10^5 cells/well) were seeded in 6-well plates and incubated with HG in the presence or absence of test samples for 24 h. At the end of the incubation, the culture supernatant was removed and cells were washed twice with PBS. DCFH2-DA (10 μM) was mixed with 500 μL MEM and added to the culture plate. After incubation for 30 minutes, cells were collected by trypsin and the fluorescence shift was quantified using a flow cytometer (Beckman Coulter). Data were acquired and analyzed using CXP software (Beckman Coulter).

HUVECs = assay: Cell viability of HUVECs (MTT assay); assay type: cell-based, human; conditions: ANM 10 μM or RES 5 μM for 48 h
Protocol: Human normal dermal fibroblasts ([…]) and human umbilical vein endothelial cells (HUVECs) were obtained from the Bioresource Collection and Research Center (BCRC), Hsinchu, Taiwan. […] Likewise, HUVECs were grown in M-199 medium supplemented with ECGS, heparin, 10% FBS and 100 U/mL penicillin and streptomycin at 37°C in a fully humidified atmosphere of 5% CO2. High-glucose treatment was performed by treating cells with 15 or 30 mM D-glucose (HG) for 24-72 h. […] Cell viability was assessed by MTT colorimetric assay. […] After treatment with HG (15 and 30 mM) in the presence or absence of samples for 24-72 h, culture media was withdrawn and incubated with MTT (1 mg/mL) in fresh medium for 2 h. The MTT formazan crystals were dissolved in 400 μL of DMSO and the samples were measured at 570 nm […] using an ELISA microplate reader (Bio-Tek Instruments, Winooski, VT). The percentage of cell viability (%) was calculated as (A570 of treated cells/A570 of untreated cells) × 100.

[9] = tested on: C. elegans wild type Bristol N2; assay: Life span assay in C. elegans; assay type: in vivo, Caenorhabditis elegans; conditions: ANM 10 μM or RES 438 μM alone, compared to the control
Protocol: The wild type Bristol N2 strain was used in this study. C. elegans and Escherichia coli OP50 strain were obtained from the Caenorhabditis Genetic Center, University of Minnesota (Minneapolis-St. Paul, MN). Worms were maintained at 20°C on nematode growth medium (NGM). Hatched worms (L1-stage larvae) were transferred to fresh agar plates and cultured with E. coli OP50 as a food source until they reached the L4 larvae stage. Synchronization of worm cultures was achieved by hypochlorite treatment of gravid hermaphrodites. […] Control worms were treated with 0.1% DMSO. All worms were kept 20°C to develop adulthood. Surviving and dead animals were counted daily (starting from the first day of adulthood) until all worms had died. […] Worms suffering from internal hatch (a defect in egg-laying) and those that crawled off the NGM plate were not included in the life-span assay. During the reproductive period, adult worms were transferred to fresh NGM plates every and then every other day thereafter. Life span assay result was obtained from three independent assays.

[10] = Homo sapiens, 72 h, 1, 5, 10 and 20 μM for 72 h

Structure (SMILES): C=C(CC[C@@H](C)[C@H]1CC[C@H]2C3=C(C(=O)C[C@]12C)[C@@]1(C)CCC(=O)[C@@H](C)[C@@H]1CC3)C(C)C(=O)O (some centres unmarked) [ANA, antcin A]
IC50 (HNDFs [1]; [10]): > 50 µM
HG-induced upregulation of p16INK4A and p21CIP1 proteins [2]: moderate inhibition
SA-β-gal positive cells (HNDFs [3]): 7.46 fold
cell proliferation compared to the HG treatment group (HNDFs [4]): partially increased cell proliferation

Structure (SMILES): C=C(CC[C@@H](C)[C@H]1CC[C@H]2C3=C(C(=O)C[C@]12C)[C@@]1(C)CCC(=O)[C@@H](C)[C@@H]1CC3=O)[C@H](C)C(=O)O [ANB, antcin B]
IC50 (HNDFs [1]; [10]): 7.11 µM

Structure (SMILES): C=C(CCC(C)C1CCC2C3=C(C(=O)CC21C)C1(C)CCC(=O)C(C)C1CC3O)C(C)C(=O)O (centres unmarked) [ANC, antcin C]
IC50 (HNDFs [1]; [10]): > 50 µM
cytotoxicity to HNDFs up to the high treatment concentration (HNDFs [1]): did not show significant cytotoxicity

Structure (SMILES): C=C(CCC(C)C1CCC2C3=C(C(=O)C(O)C21C)C1(C)CCC(O)C(C)C1CC3=O)C(C)C(=O)O (centres unmarked) [ANH, antcin H]
IC50 (HNDFs [1]; 1, 5, 10 and 20 μM for 72 h): > 50 µM
cytotoxicity to HNDFs up to the high treatment concentration (HNDFs [1]): did not show significant cytotoxicity
HG-induced upregulation of p16INK4A and p21CIP1 proteins [2]: moderate inhibition
SA-β-gal positive cells (HNDFs [3]): 8.13 fold
cell proliferation compared to the HG treatment group (HNDFs [4]): partially increased cell proliferation

Structure (SMILES): C=C(CC[C@@H](C)[C@H]1CC[C@H]2C3=C(C(=O)C[C@]12C)[C@@]1(C)CC[C@@H](O)[C@](C)(O)[C@@H]1C[C@@H]3O)C(C)C(=O)O (some centres unmarked) [ANK, antcin K]
IC50 (HNDFs [1]; [10]): 2.89 µM

ANM-induced ARE luciferase activity after inhibitor pretreatment [5]: effectively suppressed
Structure (SMILES): O=c1cc(N2CCOCC2)oc2c(-c3ccccc3)cccc12 [LY294002, reference compound]
HG-induced SA-β-gal activity in kinase inhibitor-treated cells (HNDFs [3]): reduced

ARE luciferase activity ([5]; ANM 10 μM or NAC 100 μM alone, control 1-fold): 6.3 fold
ARE luciferase activity ([5]; co-treated with HG (30 mM), ANM 10 μM or NAC 100 μM, HG alone 2.5-fold): 8.2 fold
Structure (SMILES): CC(=O)N[C@@H](CS)C(=O)O [NAC, N-acetylcysteine, reference compound]
HG-induced cell-cycle arrest (HNDFs [6]): partially blocked
free-radical scavenging in the cell-free system [7]: potent free-radical scavenging effect
HG-induced ROS generation (HNDFs [8]; ANM 10 μM or NAC 100 μM with HG (30 mM) for 24 h, HG alone 426.2%): 176.58%
ROS generation, treatment alone (HNDFs [8]; ANM 10 μM or NAC 100 μM without HG, 24 h): did not significantly increase ROS generation

ANM-induced ARE luciferase activity after inhibitor pretreatment [5]: effectively suppressed
Structure (SMILES): COc1cccc(-c2cc(=O)c3ccccc3o2)c1N [PD98059, reference compound]
HG-induced SA-β-gal activity in kinase inhibitor-treated cells (HNDFs [3]): did not affect

Structure (SMILES): Oc1ccc(/C=C/c2cc(O)cc(O)c2)cc1 [RES, resveratrol, reference compound]
cell viability of HUVECs, treatment alone (HUVECs): did not affect cell viability
life span of C. elegans under normal condition [9]: highly comparable

Structure (SMILES): C[S+]([O-])c1ccc(-c2nc(-c3ccncc3)c(-c3ccc(F)cc3)[nH]2)cc1 (centres unmarked) [SB203580, reference compound]
ANM-induced ARE luciferase activity after inhibitor pretreatment [5]: partially or barely inhibited
HG-induced SA-β-gal activity in kinase inhibitor-treated cells (HNDFs [3]): barely observed

ANM-induced ARE luciferase activity after inhibitor pretreatment [5]: partially or barely inhibited
Structure (SMILES): Oc1c2ccccc2c2c3c(cccc13)N=N2 [SP600125, reference compound]
HG-induced SA-β-gal activity in kinase inhibitor-treated cells (HNDFs [3]): barely observed
